Converted amounts (≈) assume the structure as drawn. Where two headings read alike, the source gives them in different places.
Columns and labels:
SARS-CoV-2 3CL Protease = SARS-CoV-2 3CL Protease (Severe acute respiratory syndrome coronavirus 2, UniProt P0DTD1); test: biochemical; conditions: for % inhibition: 100 µM
[1] = test system: SARS-CoV-2 (hCoV-19/Egypt/NRC-03/2020); test: Antiviral IC50 determination, reduction of virus-induced cytopathic effect in Vero-E6 cells (crystal violet); assay type: cell-based
Cytotoxicity assay (MTT) = assay type: cell-based; conditions: African green monkey, VERO-E6 cells
Experimental: The cytotoxic activity of the tested compounds was tested in VERO-E6 cells by using the 3-(4, 5-dimethylthiazol-2-yl)-2, 5-diphenyltetrazolium bromide (MTT) method with minor modifications. Briefly, the cells were seeded in 96 well-plates (100 µL/well at a density of 3 × 10^5 cells/mL) and incubated for 24 h at 37 °C in 5% CO2. After 24 h, cells were treated with various concentrations of the tested compounds in triplicates. 24 h later, the supernatant was discarded, and cell monolayers were washed with sterile 1× phosphate buffer saline (PBS) 3 times and MTT solution (20 µL of 5 mg/mL stock solution) was added to each well and incubated at 37 °C for 4 h followed by medium aspiration. In each well, the formed formazan crystals were dissolved with 200 µL of acidified isopropanol (0.04 M HCl in absolute isopropanol = 0.073 mL HCL in 50 mL isopropanol). Absorbance of formazan solutions was measured at λ max 540 nm with 620 nm as a reference wavelength using a multi-well plate reader. The percentage of cytotoxicity compared to the untreated cells was determined with the following equation.

[2] = set-up: method as in PMID 31468636; conditions: dose of 600 mg, healthy volunteers, cited from earlier work
[3] = 100 µM concentration, FRET assay, read-out: % inhibition
[4] = SARS COV-2 viral main protease, FRET assay, read-out: IC50
[5] = 100 µM concentration, FRET assay

| SMILES | inhibition at 100 µM (SARS-CoV-2 3CL Protease; [3]) [%] | inhibition at 100 µM (SARS-CoV-2 3CL Protease) [%] | further results |
| --- | --- | --- | --- |
| O=c1cc(-c2ccc(O)cc2)oc2cc(OC3O[C@H](CO)[C@@H](O)[C@H](O)[C@H]3O)cc(O)c12 (stereo partly drawn) [Compound 6, Apigenin-7-O-β-D-glucoside] | 83.1 |  | IC50 (SARS-CoV-2 3CL Protease; [4]): 74 nM |
| CC1=CC(=O)C(C(C)C)=CC1=O [Compound 17, Thymoquinon] | 63 |  | % inhibition (SARS-CoV-2 3CL Protease; [5]): 63.21% |
| O=C(c1ccc(O)c(O)c1)c1c(O)cc(O)cc1OC1OC(CO)C(O)C(O)C1O [Compound 8, Maclurin-6-O-β-D-glucopyranoside (Rhodanthenone)] |  | 23.2 |  |
| O=C(c1cc(O)cc(O)c1)c1c(O)cc(O)cc1O [Compound 3, 2,3′,4,5′,6-Pentahydroxy benzophenone] | 87.9 |  | IC50 (SARS-CoV-2 3CL Protease; [4]): 102 nM |
| O=C1C[C@@H](c2ccc(O)cc2)Oc2cc(O)cc(O)c21 [Compound 5, Naringenin] |  | 97.9 | IC50 (SARS-CoV-2 3CL Protease): 92 nM; IC50 ([1]; Severe acute respiratory syndrome coronavirus 2, Vero C1008, 72 h, read-out: IC50 (anti-SARS-CoV-2)): 28.3 µg/mL (≈ 104 µM); selectivity index (CC50/IC50) ([1]; Vero-E6 cells): 6.3; CC50 at 24 h (Cytotoxicity assay (MTT)): 179 µg/mL (≈ 657 µM); toxicity [2]: without relevant toxicity; Cmax ([2]; read-out: serum Cmax): ~50 µM |
| C[C@@H]1O[C@@H](O[C@@H]2[C@@H](O)[C@H](OCCc3ccc(O)c(O)c3)O[C@H](COC(=O)/C=C/c3ccc(O)c(O)c3)[C@H]2O)[C@H](O)[C@H](O)[C@H]1O [Compound 15, Iso-Acteoside] |  | 24.6 |  |
| COc1ccc(-c2cc(=O)c3c(O)cc(O)cc3o2)cc1Oc1ccc(-c2cc(=O)c3c(O)cc(O)cc3o2)cc1 [Compound 4, Ochnaflavone-4′-methyl ether] | 53 |  | % inhibition (SARS-CoV-2 3CL Protease; [5]): 53.22% |
| O=c1c(O)c(-c2ccc(O)cc2)oc2cc(OC3OC(CO)C(O)C(O)C3O)cc(O)c12 [Compound 16, Kaempferol-7-O-β-D-glucoside] |  | 23.3 |  |
| CC(C)C(=O)NCCC1(O)c2scnc2-c2nccc3c2C1Nc1ccccc1-3 (centres unmarked) [Compound 7, Sagitol C] |  | 27 |  |
| C[C@@H]1O[C@@H](O[C@@H]2[C@@H](O)[C@H](OCCc3ccc(O)c(O)c3)O[C@H](CO)[C@H]2OC(=O)/C=C/c2ccc(O)c(O)c2)[C@H](O)[C@H](O)[C@H]1O [Compound 1, Acteoside] | 75.8 |  | IC50 (SARS-CoV-2 3CL Protease): 43 nM |
| C/C=C1/[C@H](O[C@@H]2O[C@H](CO)[C@@H](O)[C@H](O)[C@H]2O)OC=C(C(=O)OC)[C@H]1CC(=O)OCCc1ccc(O)c(O)c1 [Compound 18, Oleuropein] |  | 26.4 |  |
| O=C(O)c1cc(O)c2c(c1)[C@@H]([C@H]1c3cc(C(=O)O)cc(O)c3C(=O)c3c(O[C@@H]4O[C@H](CO)[C@@H](O)[C@H](O)[C@H]4O)cccc31)c1cccc(O[C@@H]3O[C@H](CO)[C@@H](O)[C@H](O)[C@H]3O)c1C2=O [Compound 2, Sennoside B] |  | 78.5 |  |
